Assays:
[1] = system: Wild type L1210 leukemic cells; experiment: In vitro cytotoxicity, wild type L1210 leukemic cells (L1210/0); assay type: cell-based; settings: for ID50: L1210, 72 hours incubation
How it was run: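 Cells at 10^5 cells/ml were exposed to drug at 0.01, 0.1, 1 or 10 μg/ml final. Cell counts were taken by Coulter counter after 72 h […]. Percent growth inhibition was calculated versus control cultures.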

[2] = system: L1210 leukemia cells (L1210/PDD); experiment: In vitro cytotoxicity / cross-resistance, L1210/PDD (L1210/DDP) cells resistant to cisdiamminedichloroplatinum(II); assay type: cell-based; settings: L1210/DDP, Tables VII and VIII; 5760 min
Procedure: Four ml of cell suspension were added to culture tubes and the appropriate concentration (0.01, 0.1, 1 or 10 μg/ml final drug concentration) was added. After 96 hours the cell concentration of control and experimental cultures were calculated with the aid of a Coulter Counter® Model ZBf and the percent inhibition calculated.

L1210 cells = experiment: In vivo anti-tumor activity, L1210, single i.p. injection; parameters: species or system BDF1 mice; settings: for Maximal Effective Dose: single i.p. injection; for % T/C: single i.p.
Procedure: About 24 hours after inoculation of the cells, the mice were injected intraperitoneally with varying dosages of complexes of the present invention. […] Long term survival signifies that animals were alive 60 days after inoculation with L1210 cells.

L1210/0 leukemia cells = experiment: In vivo anti-tumor activity, L1210 (L1210/0), multiple i.p. doses; parameters: species or system BDF1 mice; settings: for Long Term Survivors: days 1, 5 and 9, at maximal effective dose, alive 60 days after tumor inoculation; for Maximal Effective Dose: i.p. on days 1, 5 and 9; for LTS: survivors/treated 50 days after treatment
How it was run: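 BDF1 mice given 10^6 L1210 cells i.p., then i.p. complex starting about 24 h later (day 1), as single dose or on days 1, 5 and 9; six mice per dose. Activity expressed as %T/C of survival time versus untreated controls; long-term survivors alive at 60 days.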

B16 cells = experiment: Melanotic melanoma test, i.p. inoculated B16 melanoma; assay type: in vivo, BDF1 mice; settings: for Maximal Effective Dose: B16, i.p. days 1, 5 and 9; for % T/C / Long Term Survivors: B16, i.p. days 1, 5 and 9, at maximal effective dose; for Long Term Survivors: 60 days
Procedure: The animals used were BDF1 mice, all of the same sex, weighing a minimum of 18 g. and all within a 4 g. weight range. There were 6 animals per test group. […] The test compounds were administered intraperitoneally on days 1, 5 and 9 at various doses. The animals were weighed and survivors were recorded on a regular basis for 60 days. The median survival time and the ratio of survival time for treated (T)/control (C) animals were calculated. […] The criterion for efficacy is T/C×100≥125%.

[3] = Acute lethality, single intraperitoneal injection (Table XIII); assay type: in vivo
[4] = BUN (RUN [sic]) with the acute lethality data (Table XIII); assay type: in vivo; settings: mean + 1 S.D.
[5] = Table IX, at maximal effective dose
[6] = Tables X and XI, i.p. on days 1, 5 and 9, at maximal effective dose

Row | SMILES | ID50 [1] | ID50 L1210/DDP [2] | Maximal Effective Dose (L1210 cells; Table IX) | % T/C (L1210 cells; [5]) | % T/C (L1210 cells; 12.5 mg/kg) | % T/C (L1210 cells; 25 mg/kg) | % T/C (L1210 cells; 50 mg/kg) | Long Term Survivors (L1210/0 leukemia cells; Tables X and XI) | Maximal Effective Dose (L1210/0 leukemia cells; Tables X and XI) | % T/C (L1210/0 leukemia cells; [6]) | Maximal Effective Dose (B16 cells) | % T/C (B16 cells) | Long Term Survivors (B16 cells) | LD10 [3] | LD50 [3] | LD90 [3] | RUN [4] | other results
1 | CN(CC(=O)[O-])CC(=O)[O-].NC1CCCCC1N.O.[Pt+2] [Compound 28, N--Methyliminodiacetato(DACH)Pt(II).1H2 O] | 1.6 µg/mL | 1.3 µg/mL | 25 mg/kg | 180% | 161% | 185% | Toxic | 5/6 | 12.5 mg/kg | 550% | 25 mg/kg | 205% | 0/6 | 49 mg/kg | 92 mg/kg | 170 mg/kg | 22 ± 3 mg/100 ml | –
2 | NC1CCCCC1N.O.O.O=C([O-])CN(CC(=O)[O-])c1ccccc1.[Pt+2] [Compound 37, N--Phenyliminodiacetato(DACH)Pt(II).2H2 O] | 1.0 µg/mL | 2.6 µg/mL | 12.5 mg/kg | 172% | 172% | 156% | 108% | 4/6 | 12.5 mg/kg | 537% | 25 mg/kg | 215% | 0/6 | 56 mg/kg | 81 mg/kg | 135 mg/kg | 18 ± 1 mg/100 ml | ID50 L1210/0 ([1]; L1210/0, protocol of Example 14, Tables VII and VIII, 4320 min): 2.3 µg/mL; % T/C (L1210/0 leukemia cells; 6.25 mg/kg i.p., days 1, 5, 9, 30 day observation period): 246%; LTS (L1210/0 leukemia cells; 6.25 mg/kg, days 1, 5, 9): 3/6; % T/C (L1210/0 leukemia cells; 12.5 mg/kg i.p., days 1, 5, 9, 30 day observation period): 298%; LTS (L1210/0 leukemia cells; 12.5 mg/kg, days 1, 5, 9): 5/6; % T/C (L1210/0 leukemia cells; 25 mg/kg i.p., days 1, 5, 9, 30 day observation period): 242%; LTS (L1210/0 leukemia cells; 25 mg/kg, days 1, 5, 9): 1/6

— US4661516A, “Diaminocyclohexane platinum complexes” (Research Corporation, priority 1984, dated 1987)
